In US7196110B2, “N-substituted tricyclic 3-aminopyrazoles as inhibitors for the treatment of cell proliferative disorders” (Janssen Phamaceutica N.V., priority 2002, dated 2007):

Columns and labels:
[1] = target: T1, PDGF-receptor beta enzyme comprising the tyrosine kinase domain (Homo sapiens, UniProt P09619); test: Inhibition of PDGF-receptor kinase activity (cell-free, PLC1 peptide, 33P Flashplate); assay type: biochemical; conditions: PDGF-R kinase activity; for inhibition at 10 µM: compound at 10 uM, read-out: Percent Inhibition @ 10 uM; for IC50: read-out: IC50
T1 construct: from amino acid 545 to 1106 of GenBank Access NO: AAA36427
T1 sequence (P09619 545-1106): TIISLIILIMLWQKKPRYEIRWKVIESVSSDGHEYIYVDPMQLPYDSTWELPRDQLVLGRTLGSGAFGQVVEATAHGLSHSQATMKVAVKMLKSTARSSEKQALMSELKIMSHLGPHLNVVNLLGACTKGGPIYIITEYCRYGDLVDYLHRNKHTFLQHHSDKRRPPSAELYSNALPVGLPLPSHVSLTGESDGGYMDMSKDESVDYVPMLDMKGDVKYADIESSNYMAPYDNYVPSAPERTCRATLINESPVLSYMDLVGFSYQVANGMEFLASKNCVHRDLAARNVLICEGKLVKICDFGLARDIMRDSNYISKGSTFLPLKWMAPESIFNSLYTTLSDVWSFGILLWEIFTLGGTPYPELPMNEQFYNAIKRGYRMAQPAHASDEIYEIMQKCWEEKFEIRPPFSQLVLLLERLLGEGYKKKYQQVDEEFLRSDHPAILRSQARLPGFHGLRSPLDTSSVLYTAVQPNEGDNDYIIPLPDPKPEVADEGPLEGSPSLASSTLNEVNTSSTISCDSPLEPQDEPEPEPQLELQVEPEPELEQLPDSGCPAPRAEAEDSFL
Outline: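 The IC50 is the inhibitor level halving kinase activity relative to inhibitor-free wells, measured as 33P captured on a streptavidin-bound biotin-PLC1 peptide. The reaction ran 60 min at 30 °C in pH 8 Tris buffer with 1 mM DTT, 5 μM ATP and the 545–1106 kinase-domain enzyme.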

c-Abl kinase = c-Abl kinase (Abelson murine leukemia virus, UniProt P00521); test: Inhibition of c-Abl kinase activity (cell-free, Abl peptide substrate, 33P Flashplate); assay type: biochemical; conditions: IC50 for the c-Abl kinase activity
Chain of c-Abl kinase (P00521 115-385): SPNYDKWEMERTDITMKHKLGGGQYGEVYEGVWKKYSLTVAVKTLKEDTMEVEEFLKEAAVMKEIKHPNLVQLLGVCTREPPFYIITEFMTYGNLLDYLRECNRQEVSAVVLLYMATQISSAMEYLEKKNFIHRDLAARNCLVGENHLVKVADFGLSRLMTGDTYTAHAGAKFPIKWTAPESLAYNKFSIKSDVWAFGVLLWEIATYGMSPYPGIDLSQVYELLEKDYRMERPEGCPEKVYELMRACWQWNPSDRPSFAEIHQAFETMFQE

Row | Compound | inhibition at 10 µM [1] | IC50 [1] | IC50 (c-Abl kinase)
1 | COCCCOc1cc2c(cc1OCCCOC)-c1n[nH]c(Nc3cccnc3)c1C2 [Compound 286, [6,7-Bis-(3-methoxy-propoxy)-2,4-dihydro-indeno[1,2-c]pyrazol-3-yl]-pyridin-3-yl-amine] | 95.5% | 16.2 nM | 2950 nM
2 | COCCCOc1cc2c(cc1OCCCOC)-c1n[nH]c(Nc3ccc(F)c(Cl)c3)c1C2 [Compound 287, [6,7-Bis-(3-methoxy-propoxy)-2,4-dihydro-indeno[1,2-c]pyrazol-3-yl]-(3-Chloro-4-fluoro-phenyl)-amine] | 92.5% | 26.2 nM | 3450 nM
3 | CC(O)c1cccc(Nc2[nH]nc3c2Cc2cc(F)ccc2-3)c1 (stereo not drawn) [Compound 289, 1-[3-(6-Fluoro-2,4-dihydro-indeno[1,2-c]pyrazol-3-ylamino)-phenyl]-ethanol] | 93.5% | 18.5 nM | 2400 nM
4 | CCOc1cc2c(cc1OCC)-c1n[nH]c(NCc3ccccc3Cl)c1C2 [Compound 292, (2-Chloro-benzyl)-(6,7-diethoxy-2,4-dihydro-indeno[1,2-c]pyrazol-3-yl)-amine] | 86.5% | 18.2 nM | 1 nM
5 | Fc1ccc2c(c1)-c1n[nH]c(Nc3ccccc3)c1C2 [Compound 299, (7-Fluoro-2,4-dihydro-indeno[1,2-c]pyrazol-3-yl)-phenyl-amine] | 80% | 19.3 nM | 198 nM
6 | COc1ccc(Nc2[nH]nc3c2Cc2ccc(C)cc2-3)cc1Cl [Compound 309, (3-Chloro-4-methoxy-phenyl)-(7-methyl-2,4-dihydro-indeno[1,2-c]pyrazol-3-yl)-amine] | 92.5% | 30.2 nM | 822 nM
7 | Cc1ccc2c(c1)-c1n[nH]c(Nc3cccc(C(C)O)c3)c1C2 (stereo not drawn) [Compound 310, 1-[3-(7-Methyl-2,4-dihydro-indeno[1,2-c]pyrazol-3-ylamino)-phenyl]-ethanol] | 95.5% | 20.2 nM | 1470 nM
8 | Fc1cccc(Nc2[nH]nc3c2Cc2ccc(F)cc2-3)c1 [Compound 334, (7-Fluoro-2,4-dihydro-indeno[1,2-c]pyrazol-3-yl)-(3-fluoro-phenyl)-amine] | 99.5% | 8.69 nM | 3300 nM
9 | Fc1cccc(Nc2[nH]nc3c2Cc2ccccc2-3)c1 [Compound 337, (2,4-Dihydro-indeno[1,2-c]pyrazol-3-yl)-(3-fluoro-phenyl)-amine] | 100% | 8.8 nM | 2740 nM
10 | Fc1ccc(F)c(Nc2[nH]nc3c2Cc2ccccc2-3)c1 [Compound 339, (2,5-Difluoro-phenyl)-(2,4-dihydro-indeno[1,2-c]pyrazol-3-yl)-amine] | 100% | 117 nM | 2180 nM
11 | COc1ccc(OC)c(Nc2[nH]nc3c2Cc2ccccc2-3)c1 [Compound 341, (2,4-Dihydro-indeno[1,2-c]pyrazol-3-yl)-(2,5-dimethoxy-phenyl)-amine] | 92.5% | 41.2 nM | 350 nM
12 | CCOc1cc2c(cc1OCC)C(C)c1c-2n[nH]c1Nc1cccc(OC)c1 (stereo not drawn) [Compound 348, (6,7-Diethoxy-4-methyl-2,4-dihydro-indeno[1,2-c]pyrazol-3-yl)-(3-methoxy-phenyl)-amine] | 97.5% | 25.3 nM | 11 nM
13 | COc1cc2c(cc1F)Cc1c-2n[nH]c1Nc1cccc(Br)c1 [Compound 358, (3-Bromo-phenyl)-(6-fluoro-7-methoxy-2,4-dihydro-indeno[1,2-c]pyrazol-3-yl)-amine] | 92% | 8.77 nM | 338 nM
14 | COc1cc2c(cc1F)Cc1c-2n[nH]c1Nc1ccc(F)c(Cl)c1 [Compound 359, (3-Chloro-4-fluoro-phenyl)-(6-fluoro-7-methoxy-2,4-dihydro-indeno[1,2-c]pyrazol-3-yl)-amine] | 98.5% | 41.5 nM | 143 nM
15 | COc1cccc(Nc2[nH]nc3c2Cc2cc(F)c(OC)cc2-3)c1 [Compound 360, (6-Fluoro-7-methoxy-2,4-dihydro-indeno[1,2-c]pyrazol-3-yl)-(3-methoxy-phenyl)-amine] | 98% | 7.5 nM | 77 nM
16 | COc1cc2c(cc1F)Cc1c-2n[nH]c1Nc1ccc(F)cc1 [Compound 361, (6-Fluoro-7-methoxy-2,4-dihydro-indeno[1,2-c]pyrazol-3-yl)-(4-fluoro-phenyl)-amine] | 100% | 11.6 nM | 43 nM
17 | COc1cc2c(cc1O)Cc1c-2n[nH]c1Nc1cccc(F)c1 [Compound 363, 3-(3-Fluoro-phenylamino)-7-methoxy-2,4-dihydro-indeno[1,2-c]pyrazol-6-ol] | 76.5% | 5.47 nM | 1 nM

Row | Compound | inhibition at 10 µM [1] | IC50 [1] | IC50 (c-Abl kinase)
18 | COc1cc2c(cc1Br)Cc1c-2n[nH]c1Nc1cccc(F)c1 [Compound 369, (6-Bromo-7-methoxy-2,4-dihydro-indeno[1,2-c]pyrazol-3-yl)-(3-fluoro-phenyl)-amine] | 100% | 18.7 nM | 47 nM
19 | COc1cccc(Nc2[nH]nc3c2Cc2cc(Br)c(OC)cc2-3)c1 [Compound 370, (6-Bromo-7-methoxy-2,4-dihydro-indeno[1,2-c]pyrazol-3-yl)-(3-methoxy-phenyl)-amine] | 94% | 12.2 nM | 6 nM
20 | CCOc1cc2c(cc1OCCCO)-c1n[nH]c(Nc3cccnc3)c1C2 [Compound 371, 3-[6-Ethoxy-3-(pyridin-3-ylamino)-2,4-dihydro-indeno[1,2-c]pyrazol-7-yloxy]-propan-1-ol] | 100% | 47.6 nM | 905 nM
21 | OCCCOc1cc2c(cc1OCCCO)-c1n[nH]c(Nc3cccc(Cl)c3)c1C2 [Compound 373, 3-[3-(3-Chloro-phenylamino)-7-(3-hydroxy-propoxy)-2,4-dihydro-indeno[1,2-c]pyrazol-6-yloxy]-propan-1-ol] | 100% | 3.77 nM | 10 nM
22 | CCOc1cccc(Nc2[nH]nc3c2Cc2cc(OC)c(OC)cc2-3)c1 [Compound 374, (6,7-Dimethoxy-2,4-dihydro-indeno[1,2-c]pyrazol-3-yl)-(3-ethoxy-phenyl)-amine] | 100% | 14.1 nM | 51 nM
23 | CCOc1cccc(Nc2[nH]nc3c2Cc2cc(OCCCO)c(OC)cc2-3)c1 [Compound 376, 3-[3-(3-Ethoxy-phenylamino)-7-methoxy-2,4-dihydro-indeno[1,2-c]pyrazol-6-yloxy]-propan-1-ol] | 100% | 9.1 nM | 60 nM
24 | CCOc1cccc(Nc2[nH]nc3c2Cc2cc(OCC(O)CO)c(OC)cc2-3)c1 (stereo not drawn) [Compound 379, 3-[3-(3-Ethoxy-phenylamino)-7-methoxy-2,4-dihydro-indeno[1,2-c]pyrazol-6-yloxy]-propane-1,2-diol] | 100% | 8.12 nM | 14 nM
25 | Fc1cccc(Nc2[nH]nc3c2oc2ccccc23)c1 [Compound 380, (3-Fluoro-phenyl)-(2H-8-oxa-2,3-diaza-cyclopenta[a]inden-1-yl)-amine] | 99.5% | 15.3 nM | 327 nM
26 | Fc1ccc(Nc2[nH]nc3c2oc2ccccc23)cc1Cl [Compound 381, (3-Chloro-4-fluoro-phenyl)-(2H-8-oxa-2,3-diaza-cyclopenta[a]inden-1-yl)-amine] | 100% | 54.9 nM | 1500 nM
27 | CCOc1cc2c(cc1OCCCO)Cc1c-2n[nH]c1Nc1cccc(F)c1 [Compound 382, 3-[7-Ethoxy-3-(3-fluoro-phenylamino)-2,4-dihydro-indeno[1,2-c]pyrazol-6-yloxy]-propan-1-ol] | 100% | 11.9 nM | 19 nM
28 | CCOc1cc2c(cc1OCCCO)Cc1c-2n[nH]c1Nc1cccnc1 [Compound 383, 3-[7-Ethoxy-3-(pyridin-3-ylamino)-2,4-dihydro-indeno[1,2-c]pyrazol-6-yloxy]-propan-1-ol] | 93% | 25.3 nM | 183 nM
29 | CCOc1cc2c(cc1OCCCO)Cc1c-2n[nH]c1Nc1cccc(OC)c1 [Compound 384, 3-[7-Ethoxy-3-(3-methoxy-phenylamino)-2,4-dihydro-indeno[1,2-c]pyrazol-6-yloxy]-propan-1-ol] | 100% | 5.61 nM | 4 nM
30 | COc1cc2c(cc1OCCCO)Cc1c-2n[nH]c1NCc1ccccc1Cl [Compound 385, 3-[3-(2-Chloro-benzylamino)-7-methoxy-2,4-dihydro-indeno[1,2-c]pyrazol-6-yloxy]-propan-1-ol] | 98.5% | 4.07 nM | 12 nM
31 | COc1cc2c(cc1OCCCO)Cc1c-2n[nH]c1NCc1ccccc1F [Compound 386, 3-[3-(2-Fluoro-benzylamino)-7-methoxy-2,4-dihydro-indeno[1,2-c]pyrazol-6-yloxy]-propan-1-ol] | 95.5% | 11 nM | 20 nM
32 | OCCCOc1cc2c(cc1OCCCO)-c1n[nH]c(Nc3ccc(F)c(Cl)c3)c1C2 [Compound 389, 3-[3-(3-Chloro-4-fluoro-phenylamino)-7-(3-hydroxy-propoxy)-2,4-dihydro-indeno[1,2-c]pyrazol-6-yloxy]-propan-1-ol] | 98% | 15.1 nM | 17 nM
33 | COc1cc2c(cc1OCC(O)CN1CCCC1)Cc1c-2n[nH]c1NCc1c(F)cccc1F (stereo not drawn) [Compound 391, 1-[3-(2,6-Difluoro-benzylamino)-7-methoxy-2,4-dihydro-indeno[1,2-c]pyrazol-6-yloxy]-3-pyrrolidin-1-yl-propan-2-ol] | 99% | 6.8 nM | 14 nM
